Values after ≈ are worked out from the molar mass of the structure shown. Where two headings read alike, the source gives them in different places.
Experiments:
Test in all cases: agar serial dilution test, minimum inhibitory concentration
Type in all cases: cell-based
[1] = tested on: herellea species; conditions: HE SP strain 9955
Excerpt: (§1) The compounds of this invention are useful for the treatment of bacterial infections amenable to treatment by cephalosporins. […] In accordance with the results obtained with the antibacterial compounds of this invention, their usefulness is established in the fields of comparative pharmacology and microbiology for the purpose of inhibiting the growth of undesirable bacterial colonies.
(§2) The nmr spectra described in the following examples pertains to the spectra obtained upon exchanging acidic hydrogens with deuterium and are described in ppm (δ). The small amount of water and/or solvent carried into the products is readily removed by gently heating the material under vacuum. […]

[2] = tested on: proteus vulgaris
Excerpt: (§3) The compounds of this invention are useful for the treatment of bacterial infections amenable to treatment by cephalosporins. […] In accordance with the results obtained with the antibacterial compounds of this invention, their usefulness is established in the fields of comparative pharmacology and microbiology for the purpose of inhibiting the growth of undesirable bacterial colonies. […]

[3] = tested on: Staphylococcus aureus; conditions: Staphylococcus aureus
Excerpt: as §3

[4] = tested on: salmonella paratyphi; conditions: Salmonella enterica, read-out: Minimum Inhibitory Concentration
Excerpt: as §3

[5] = tested on: escherichia coli
Excerpt: as §3

[6] = tested on: klebsiella pneumoniae
Excerpt: as §3

[7] = tested on: neisseria catarrhalis
Excerpt: as §3

[8] = tested on: bordetella brochiseptica; conditions: BO BR strain 4617
Excerpt: as §3

[9] = tested on: bacillus subtilis; conditions: Bacillus subtilis; BA SU strain 6633
Excerpt: as §3

[10] = tested on: pseudomones aeruginosa; conditions: PS AE strain 10145
Excerpt: as §1, §2

[11] = PR VU strain 6896, read-out: Minimum Inhibitory Concentration
[12] = read-out: Minimum Inhibitory Concentration
[13] = NE CA strain 8193, read-out: Minimum Inhibitory Concentration
[14] = KL PN strain 10031, read-out: Minimum Inhibitory Concentration

| Structure (SMILES) | MIC [1] [µg/mL] | MIC [2, 11] [µg/mL] | MIC ([3]; ST AU strain 53-180) [µg/mL] | MIC ([3]; ST AU strain 6538P) [µg/mL] | MIC ([3]; ST AU strain CHP) [µg/mL] | MIC ([3]; ST AU strain Smith) [µg/mL] | MIC [4] [µg/mL] | MIC ([5]; ES CO strain 920) [µg/mL] | MIC ([5]; ES CO strain 9637) [µg/mL] | MIC [6, 12] [µg/mL] | MIC [7, 12] [µg/mL] | MIC [8] [µg/mL] | MIC [9] [µg/mL] | MIC [7, 13] [µg/mL] | MIC [6, 14] [µg/mL] | MIC [2, 12] [µg/mL] | MIC [10] [µg/mL] |
| --- | --- | --- | --- | --- | --- | --- | --- | --- | --- | --- | --- | --- | --- | --- | --- | --- | --- |
| CC(=O)OCC1=C(C(=O)O)N2C(=O)[C@@H](NC(=O)CSC(SCC#N)=C(C#N)C#N)[C@H]2SC1 [Example 2, 7-(2-[2,2-Dicyano-1-(cyanomethylthio)ethenylthio]acetamido)cephalosporanic acid] | 250 (≈ 507 µM) | 31.3 (≈ 63.4 µM) | 1.95 (≈ 3.95 µM) | 0.488 (≈ 0.989 µM) | 1.95 (≈ 3.95 µM) | 0.488 (≈ 0.989 µM) | 15.6 (≈ 31.6 µM) | 250 (≈ 507 µM) | 31.3 (≈ 63.4 µM) | 15.6 (≈ 31.6 µM) | 15.6 (≈ 31.6 µM) | 62.5 (≈ 127 µM) | 0.061 (≈ 0.124 µM) | – | – | – | – |
| CC(=O)OCC1=C(C(=O)O)N2C(=O)[C@@H](NC(=O)CSC(SCC#N)=C(C#N)c3ccccc3)[C@H]2SC1 [Example 8, 7-(2-[2-Cyano-1-(cyanomethylthio)-2-phenylethenylthio]acetamido)cephalosporanic acid] | – | 250 (≈ 459 µM) | 0.976 (≈ 1.79 µM) | 0.244 (≈ 0.448 µM) | 0.976 (≈ 1.79 µM) | 0.244 (≈ 0.448 µM) | 62.5 (≈ 115 µM) | 250 (≈ 459 µM) | 25 (≈ 45.9 µM) | 62.5 (≈ 115 µM) | – | 250 (≈ 459 µM) | 0.031 (≈ 0.0569 µM) | 3.9 (≈ 7.16 µM) | – | – | – |
| CC(=O)OCC1=C(C(=O)O)N2C(=O)[C@@H](NC(=O)CSC(=C[N+](=O)[O-])SCc3ccccc3)[C@H]2SC1 [Example 9, 7-[2-(1-Benzylthio-2-nitroethenylthio)acetamido]cephalosporanic acid] | – | 125 (≈ 232 µM) | 0.488 (≈ 0.904 µM) | 0.122 (≈ 0.226 µM) | 0.488 (≈ 0.904 µM) | 0.122 (≈ 0.226 µM) | 62.5 (≈ 116 µM) | – | 250 (≈ 463 µM) | – | – | 250 (≈ 463 µM) | 0.031 (≈ 0.0574 µM) | 7.81 (≈ 14.5 µM) | 125 (≈ 232 µM) | – | – |
| CC(=O)OCC1=C(C(=O)O)N2C(=O)[C@@H](NC(=O)CSC(=NC#N)SCc3ccccc3)[C@H]2SC1 [Example 10, 7-[2-[ (cyanoimino) (phenylmethylthio)methylthio]acetamido]cephalosporanic acid] | – | 15.6 (≈ 30 µM) | 1.95 (≈ 3.75 µM) | 0.976 (≈ 1.87 µM) | 3.9 (≈ 7.49 µM) | 0.976 (≈ 1.87 µM) | 3.9 (≈ 7.49 µM) | 62.5 (≈ 120 µM) | 15.6 (≈ 30 µM) | – | – | 15.6 (≈ 30 µM) | 0.122 (≈ 0.234 µM) | 62.5 (≈ 120 µM) | 15.6 (≈ 30 µM) | – | – |
| CCOC(=O)CSC(=NC#N)SCC(=O)N[C@@H]1C(=O)N2C(C(=O)O)=C(COC(C)=O)CS[C@H]12 [Example 12, 7-[2-[(cyanoimino)(2-ethoxy-2-oxoethylthio)methylthio]acetamido]cephalosporanic acid] | – | 62.5 (≈ 121 µM) | 1.95 (≈ 3.77 µM) | 0.976 (≈ 1.89 µM) | 3.9 (≈ 7.55 µM) | 0.488 (≈ 0.945 µM) | 31.3 (≈ 60.6 µM) | 250 (≈ 484 µM) | 250 (≈ 484 µM) | 31.3 (≈ 60.6 µM) | – | 250 (≈ 484 µM) | 0.122 (≈ 0.236 µM) | 62.5 (≈ 121 µM) | – | – | – |
| CC(=O)OCC1=C(C(=O)O)N2C(=O)[C@@H](NC(=O)CSC(=NC#N)SCc3ccc([N+](=O)[O-])cc3)[C@H]2SC1 [Example 13, 7-[2-[(cyanoimino)(4-nitrophenylmethylthio)methylthio]acetamido]cephalosporanic acid] | – | – | 3.9 (≈ 6.9 µM) | 1.95 (≈ 3.45 µM) | 3.9 (≈ 6.9 µM) | 1.95 (≈ 3.45 µM) | 62.5 (≈ 110 µM) | – | 250 (≈ 442 µM) | – | 62.5 (≈ 110 µM) | 125 (≈ 221 µM) | 0.488 (≈ 0.863 µM) | – | 250 (≈ 442 µM) | 62.5 (≈ 110 µM) | – |
| CC(=O)OCC1=C(C(=O)O)N2C(=O)[C@@H](NC(=O)CSC(=NS(C)(=O)=O)SCC#N)[C@H]2SC1 [Example 14, 7-[2-[(cyanomethylthio)(methylsulfonylimino)methylthio]acetamido)cephalosporanic acid] | 250 (≈ 478 µM) | 31.3 (≈ 59.9 µM) | 7.81 (≈ 14.9 µM) | 1.95 (≈ 3.73 µM) | 7.81 (≈ 14.9 µM) | 1.95 (≈ 3.73 µM) | 15.6 (≈ 29.9 µM) | 125 (≈ 239 µM) | 125 (≈ 239 µM) | – | – | 62.5 (≈ 120 µM) | 0.244 (≈ 0.467 µM) | 125 (≈ 239 µM) | 31.3 (≈ 59.9 µM) | – | 125 (≈ 239 µM) |
| CC(=O)OCC1=C(C(=O)O)N2C(=O)[C@@H](NC(=O)CSC(=NC#N)SCc3cccc(Cl)c3)[C@H]2SC1 [Example 16, 7-[2-[(3-chlorophenylmethylthio) (cyanoimino)methylthio]acetamido]cephalosporanic acid] | – | 125 (≈ 225 µM) | 3.9 (≈ 7.03 µM) | 0.976 (≈ 1.76 µM) | 1.95 (≈ 3.51 µM) | 1.95 (≈ 3.51 µM) | 31.3 (≈ 56.4 µM) | 250 (≈ 450 µM) | 250 (≈ 450 µM) | – | – | 250 (≈ 450 µM) | 0.122 (≈ 0.22 µM) | 125 (≈ 225 µM) | 125 (≈ 225 µM) | – | – |
| CC(=O)OCC1=C(C(=O)O)N2C(=O)[C@@H](NC(=O)CSC(=NC#N)SCc3ccc(Cl)cc3)[C@H]2SC1 [Example 18, 7-[2-[(4-Chlorophenylmethylthio) (cyanoimino)methylthio]acetamido]cephalosporanic acid] | – | 62.5 (≈ 113 µM) | 3.9 (≈ 7.03 µM) | 1.95 (≈ 3.51 µM) | 7.81 (≈ 14.1 µM) | 1.95 (≈ 3.51 µM) | 31.3 (≈ 56.4 µM) | 250 (≈ 450 µM) | 250 (≈ 450 µM) | – | – | 125 (≈ 225 µM) | 0.488 (≈ 0.879 µM) | 250 (≈ 450 µM) | 125 (≈ 225 µM) | – | – |
| C=CCSC(=NC#N)SCC(=O)N[C@@H]1C(=O)N2C(C(=O)O)=C(COC(C)=O)CS[C@H]12 [Example 19, 7-[2-[(cyanoimino)(2-propenylthio)methylthio]acetamido]cephalosporanic acid] | – | – | 3.9 (≈ 8.29 µM) | 1.95 (≈ 4.14 µM) | 7.81 (≈ 16.6 µM) | 1.95 (≈ 4.14 µM) | 31.3 (≈ 66.5 µM) | 250 (≈ 531 µM) | 250 (≈ 531 µM) | – | – | 125 (≈ 266 µM) | 0.488 (≈ 1.04 µM) | 250 (≈ 531 µM) | 125 (≈ 266 µM) | 31.3 (≈ 66.5 µM) | – |
